Source: paper PMC11984905, “Chiral Switch of Gadopiclenol: New Standards in MRI Probes” (Advanced Science, 2025)
Where “and” joins values, the source holds several entries; their conditions need not be identical. Equal entries are not always repeated. Marks after values point to notes of the source that are not given here.

Key:
Assay type in all cases: physicochemical
[1] = Stability and protonation constants of Ca(II)-complexes (pH-potentiometry); conditions: 0.15 M NaCl, 25 °C
Protocol: (§1) The protonation constants of ligands, the stability and protonation constants of Ca(II)‐ and Zn(II)‐complexes formed with rac‐L1, ent‐L1, rac‐L2, and ent‐L2 ligands were determined by pH‐potentiometric titration. The metal‐to‐ligand concentration ratio was 1:1 (the concentration of the ligand was generally 0.002 M). The protonation constants of the Cu(II)‐ and Gd(III)‐complexes were determined using pH‐potentiometry by titrating the pre‐prepared complexes from pH 2.0 to 12.0 with 0.2 M NaOH. The stability constants of the Gd(III)‐complexes with rac‐L1 and ent‐L1 ligands were determined by the “out‐of‐cell” technique because of their slow formation reaction. The pH range of the complexation equilibria and the time needed to reach the equilibria were determined by relaxometry. Eight–eight Gd(III) – rac‐L1 and Gd(III) – ent‐L1 samples were prepared, with pH values in the range of 1.7–3.0 at equilibrium ([Gd^3+] = [L] = 0.002 M). The samples were kept at 25 °C for 6 weeks to reach equilibrium. For the calculation of the stability constants of the [Gd(rac‐L1)]^3− and [Gd(ent‐L1)]^3− complexes, besides the protonation constants of ligands and the Gd(III) complexes, the stability constants of the di‐protonated [^*Gd(H2 rac‐L1)]^− and [^*Gd(H2 […])]^− out‐of‐cage complexes (considered as intermediates) was also used as fixed values, which were calculated from the pH‐potentiometric titration curve of the Gd(III) – rac‐L1 and Gd(III) – ent‐L1 system obtained in the pH range of 1.7–7.0.
(§2) For the pH measurements and titrations, the Metrohm 888 Titrando titration workstation Metrohm‐6.0234.110 combined electrode was used. Equilibrium measurements were carried out at a constant ionic strength (0.15 M NaCl) in 6 mL samples at 25 °C. The solutions were stirred, and N2 was bubbled through them. The titrations were made in the pH range 1.7–12.0. KH‐Phthalate (pH 4.005) and borax (pH 9.177) buffers were used to calibrate the pH meter. For the calculation of [H^+] from the measured pH values, the method proposed by Irving et al. was used as follows.^[ [46] ^] A 0.01M HCl solution was titrated with standardized NaOH solution at 0.15 M NaCl ionic strength. The differences (A) between the measured (pHread) and calculated pH (‐log[H^+]) values were used to obtain the equilibrium H^+ concentration from the pH values measured in the titration experiments (A = 0.02). For the equilibrium calculations, the stoichiometric water ionic product (pK w) was also needed in order to calculate [OH^−] values under basic conditions. The VNaOH – pHread data pairs of the HCl – NaOH titration obtained in the pH range 10.5–12.0 were used to calculate the pK w value (pK w = 13.83).
(§3) The stability and protonation constants of Ca(II)-, Zn(II)-, Cu(II)- and Gd(III)-complexes of rac-L1, ent-L1, rac-L2 and ent-L2, defined by Equations (S2) and (S3), were investigated by pH-potentiometry, spectrophotometry and ^1H NMR relaxometry at 25 °C in 0.15 M NaCl solution.
(§4) where i=0, 1, 2,…5. The KML and KMHiL values characterizing the formation of Ca(II)-, Zn(II)-, Cu(II)- and Gd(III)-complexes with rac-L1, ent-L1, rac-L2 and ent-L2 ligands have been calculated from the pH-potentiometric titration data obtained at 1:1 metal to ligand concentration ratios. In calculating the equilibrium constants, the best fitting of the mL NaOH – pH data has been obtained by assuming the formation of ML, MHL, MH2L, MH3L, MH4L, MH5L and MLH-1 species. The formation of the deprotonated [GdLH-1]^- complexes with rac-L2 and ent-L2 ligands takes place at pH>9.0, as indicated by the base consumption in the titration curves. This deprotonation of the Gd(III)-complexes occurs on the inner-sphere water molecule.

[2] = Stability and protonation constants of Zn(II)-complexes (pH-potentiometry); conditions: 0.15 M NaCl, 25 °C
Protocol: as §1, §2, §3, §4

[3] = Protonation constants of the ligands (pH-potentiometry); conditions: 0.15 M NaCl, 25 °C; for ΣlogKi^H: total basicity
Protocol: as §1, §2
The protonation constants of ligands, defined by Equation (S1), were determined by pH-potentiometry.
where i=1, 2…7. Standard deviations (3σ) are shown in parentheses. In Table S16, the logKi^H values of rac-L1 and rac-L2 can be regarded as the weighted average of the given protonation constant characterizing the basicity of the related protonation site in the different stereoisomers.

[4] = 1H NMRD profiles and 17O NMR relaxometry in water; conditions: for ^298K r 1 [1.5 T] / r 1 ^310K [1.5 T]: water; for ER / q: fixed in the fitting procedure; for q: number of coordinated water molecules; for τ M1: residence time of coordinated water 1, 298 K; for τ M2: residence time of coordinated water 2, 298 K; for ^SS q: second-sphere water molecules at 3.6 Å; for ^298K r 1 [1.5 T] / ^SS q: 298 K
Protocol: The magnetic‐field dependence of the longitudinal relaxation rate of water protons (^1H NMRD) were measured in aqueous solution by using a variable field relaxometer equipped with an HTS‐110 3T Metrology Cryogen‐free Superconducting Magnet (Mede, Italy), operating in the overall range of proton Larmor frequencies of 20–120 MHz (0.47–3.00 T). The measurements were performed using the standard inversion recovery sequence (20 experiments, 3 scans) with a 90° pulse width of 3.5 µs. The temperature was controlled with a Stelar VTC‐91 heater airflow. Additional points in the 0.01–10 MHz frequency range were collected on a Fast‐Field Cycling (FFC) Stelar SmarTracer Relaxometer. T 1 values at 500 MHz were collected on a Bruker Avance III NMR spectrometer operating at 11.7 T. The concentration of Gd^3+ in the solutions was determined by using bulk magnetic susceptibility (BMS) shift measurements performed at 11.7 T. For the measurements in the biological fluid, lyophilized plasma matrix (Siemens Healthcare) was added to 1 mL of [Gd(ent‐L2)] (1.0 mM) or Seronorm (Sero) was solubilized in 5 mL [Gd(ent‐L2)] (1.0 mM) solution. ^1H NMRD of the final solution was measured at 310 K.
The spectra were acquired on a Bruker Avance III spectrometer (11.7 T) using a 5 mm probe under temperature control. An aqueous solution of the complexes ([GdL] = 10–15 mM) was enriched to ca. 2.0% of the ^17O isotope (Cambridge Isotope). The transverse relaxation rates (R 2) were measured as a function of temperature in the 278−350 K range. The simultaneous fit of ^1H NMRD and ^17O NMR profiles data was performed using the Micromath Scientist software (version 2.0, Salt Lake City, UT, USA).

| Compound | logK CaL [1] | logKCaH2L [1] | logKCaH3L [1] | logKCaH4L [1] | logKCaHL [1] | logK ZnL [2] | logKZnH2L [2] | logKZnH3L [2] | logKZnH4L [2] | logKZnHL [2] | logK1^H [3] | logK2^H [3] | logK3^H [3] | logK4^H [3] | logK5^H [3] | logK6^H [3] | logK7^H [3] | ΣlogKi^H [3] | ^298K r 1 [1.5 T] [4] [mM⁻¹ s⁻¹] | r 1 ^310K [1.5 T] [4] [mM⁻¹ s⁻¹] | other results |
| --- | --- | --- | --- | --- | --- | --- | --- | --- | --- | --- | --- | --- | --- | --- | --- | --- | --- | --- | --- | --- | --- |
| O=C([O-])CCC(C(=O)[O-])N1CCN(C(CCC(=O)[O-])C(=O)[O-])Cc2cccc(n2)CN(C(CCC(=O)[O-])C(=O)[O-])CC1.[Gd+3] (racemic) [[Gd(ent‐L1)]^3−] | – | – | – | – | – | – | – | – | – | – | – | – | – | – | – | – | – | – | 10.9 | 8.6 | r 1 difference between [Gd(rac-L1)]3− and [Gd(ent-L1)]3− [4]: 18%; τ R ([4]; Table 2): 96 ± 3 ps; τ R ([4]; Table S20, 298 K): 96±3 ps; ER [4]: 22^b) kJ mol^-1; q [4]: 2; q ([4]; listed as [Gd(ent-L1)]^3-): 2^b); τ M1 [4]: 144 ± 4 ns; τ M2 [4]: 58 ± 5 ns; ^SS q [4]: 2.5 ± 0.1; ^SS q ([4]; listed as [Gd(ent‐L1)]^3⁻): 2.5 |
| O=C(CCC(C(=O)O)N1CCN(C(CCC(=O)NCC(O)CO)C(=O)O)Cc2cccc(n2)CN(C(CCC(=O)NCC(O)CO)C(=O)O)CC1)NCC(O)CO (stereo not drawn) [ent‐L2] | 10.26 (1) | – | – | – | 4.16 (2) | 20.13 (3) | – | – | – | 3.27 (3) | 10.43(1) | 5.95 (1) | 4.08 (1) | 2.05 (2) | – | – | – | 22.51 | – | – | – |
| O=C(CCC(C(=O)[O-])N1CCN(C(CCC(=O)NCC(O)CO)C(=O)[O-])Cc2cccc(n2)CN(C(CCC(=O)NCC(O)CO)C(=O)[O-])CC1)NCC(O)CO.[Gd+3] (stereo not drawn) [[Gd(ent‐L2)]] | – | – | – | – | – | – | – | – | – | – | – | – | – | – | – | – | – | – | 16.5 | 12.6 | r 1 higher than [Gd(PCTA)] [4]: 175%; r 1 increase compared to [Gd(DOTA)]− [4]: 309%; relaxivity, times higher than that of currently used GBCAs [4]: 2 to 3 times; τ R ([4]; Table 2): 127 ± 4 ps; τ R ([4]; Table S20, 298 K): 127±4 ps; ER [4]: 22^b) kJ mol^-1; q [4]: 2; q ([4]; listed as [Gd(ent-L2)]): 2^b; τ M1 [4]: 155 ± 3 ns; τ M2 [4]: 77 ± 5 ns; ^SS q [4]: 4.5 and 4.5 ± 0.2 |

Further lines, with some results ahead:

| logK CaL [1] | logKCaH2L [1] | logKCaH3L [1] | logKCaH4L [1] | logKCaHL [1] | logK ZnL [2] | logKZnH2L [2] | logKZnH3L [2] | logKZnH4L [2] | logKZnHL [2] | logK1^H [3] | logK2^H [3] | logK3^H [3] | logK4^H [3] | logK5^H [3] | logK6^H [3] | logK7^H [3] | ΣlogKi^H [3] | Compound | ^298K r 1 [1.5 T] [4] [mM⁻¹ s⁻¹] | r 1 ^310K [1.5 T] [4] [mM⁻¹ s⁻¹] | other results |
| --- | --- | --- | --- | --- | --- | --- | --- | --- | --- | --- | --- | --- | --- | --- | --- | --- | --- | --- | --- | --- | --- |
| 11.03 (1) | 5.01 (2) | 4.74 (2) | 4.24 (3) | 5.59 (2) | 20.77 (2) | 4.76 (2) | 4.18 (2) | 3.29 (2) | 5.26 (2) | 10.62 (1) | 6.82 (1) | 5.50 (2) | 4.89 (2) | 4.19 (2) | 3.88 (2) | 2.30 (2) | 38.20 | O=C(O)CCC(C(=O)O)N1CCN(C(CCC(=O)O)C(=O)O)Cc2cccc(n2)CN(C(CCC(=O)O)C(=O)O)CC1 (stereo not drawn) [ent‐L1] | – | – | – |
| 10.10 (1) | 5.34 (2) | 4.83 (4) | 4.45 (2) | 5.72 (1) | 19.54(2) | 5.01 (2) | 3.91 (3) | 3.88 (3) | 5.24 (4) | 10.58 (1) | 6.99 (1) | 5.50 (1) | 4.82 (1) | 4.23 (1) | 3.65 (1) | 2.34 (2) | 38.11 | O=C(O)CCC(C(=O)O)N1CCN(C(CCC(=O)O)C(=O)O)Cc2cccc(n2)CN(C(CCC(=O)O)C(=O)O)CC1 (racemic) [rac‐L1, 2,2’,2’’-[3,6,9,15-tetraazabicyclo[9.3.1]pentadeca-1(15),11,13-triene-3,6,9-triyl]tripentanedioic acid] | – | – | – |
| 7.84 (2) | – | – | – | 4.86 (9) | 18.66 (3) | – | – | – | 3.77 (3) | 9.58 (1) | 5.96 (2) | 4.30 (3) | 2.86 (3) | – | – | – | 22.70 | O=C(CCC(C(=O)O)N1CCN(C(CCC(=O)NCC(O)CO)C(=O)O)Cc2cccc(n2)CN(C(CCC(=O)NCC(O)CO)C(=O)O)CC1)NCC(O)CO (racemic) [rac‐L2] | – | – | – |
